Earlier results on four molecules are cited in US11992546B2, “Process of coloring keratinous material comprising the use of an organosilicon compound, an effect pigment, and a sealing reagent vi” (Henkel AG & Co. KGaA, priority 2019, dated 2024).

Like-named read-outs stand apart in the source and are kept apart here.

As for `Nc1cc(S(=O)(=O)[O-])cc2cc(S(=O)(=O)[O-])c(N=Nc3ccccc3)c(O)c12.[Na+].[Na+]` [Acid Red 33, disodium salt of 5-amino-4-hydroxy-3-(phenylazo)-naphthalene-2,7-disulphonate], the solubility in water (25° C.) is 2500 µg/mL.

Regarding `O=C([O-])c1c(Cl)c(Cl)c(Cl)c(Cl)c1-c1c2c(Br)cc(=O)c(Br)c-2oc2c(Br)c(O)cc(Br)c12.O=C([O-])c1c(Cl)c(Cl)c(Cl)c(Cl)c1-c1c2c(Br)cc(=O)c(Br)c-2oc2c(Br)c(O)cc(Br)c12.[Na+].[Na+]` [Acid Red 92, disodium salt of 3,4,5,6-tetrachloro-2-(1,4,5,8-tetrabromo-6-hydroxy-3-oxoxanthen-9-yl)benzoic acid], the solubility in water entry (25° C.) is on record as “greater than 10 g/L”.

Consider `O=S(=O)([O-])c1ccc(N=Nc2c(O)ccc3ccccc23)cc1.[Na+]` [Acid Orange 7, sodium salt of 4-[(2-hydroxy-1-naphthyl)azo]benzene sulphonate], for which the solubility in water result (25° C.) is listed as “more than 7 g/L”.

For the molecule `O=C([O-])C1=NN(c2ccc(S(=O)(=O)[O-])cc2)C(=O)C1N=Nc1ccc(S(=O)(=O)[O-])cc1.[Na+].[Na+].[Na+]` (stereo not shown) [Acid Yellow 23, trisodium salt of 4,5-dihydro-5-oxo-1-(4-sulfophenyl)-4-((4-sulfophenyl)azo)-1H-pyrazole-3-carboxylic acid], the “solubility in water” value (at 25° C.) is on record as “highly soluble”.
